The nature of the data set: gradient 5% acetonitrile 3 min, to 50% in 2 min, to 85% in 15 min, held 3 min, 100 µL/min. The conditions noted are these: column: Zorbax Extend-C18 2.1 x 50 mm; eluents: water / acetonitrile, 0.1% formic acid. In short, it runs like this:
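Retention time was recorded from adduct peaks, which were picked computationally and each inspected manually. Pure standards ran in mixtures of ~100 molecules on HPLC coupled to a quadrupole time-of-flight mass spectrometer, in positive and negative ionization mode, through a Zorbax Extend-C18 column (2.1 × 50 mm, 1.8 μm) at 100 μL/min. Eluents were water and acetonitrile, each with 0.1% formic acid.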
As for `COc1ccc(-c2nnc(-c3cc(S(=O)(=O)N4CCC(C(=O)O)CC4)ccc3Cl)o2)cc1`, the RP-LC retention time turned out to be 875 s.

`COc1cccc(CC(=O)NCC(=O)Nc2nc3ccccc3n2C)c1` registered an RP-LC retention time of 645 s.

On to `CCOc1ccccc1C(=O)N1CCN=C1SCc1ccc([N+](=O)[O-])cc1`, for which the RP-LC retention time amounted to 898 s.

Molecule `CC(C)(C)c1ccc(-c2noc(Cn3c(=O)n(-c4ccccc4F)c(=O)c4sccc43)n2)cc1` showed an RP-LC retention time of 1220 s.

As for `Cn1cc(C2=CCN(S(=O)(=O)c3ccc(F)c(Cl)c3)CC2)c2cccnc21`, the RP-LC retention time stood at 1050 s.

`Cc1ccc(-n2c(=O)c3c(cc(C)n3C)n(CC(=O)Nc3cc(Cl)ccc3C)c2=O)cc1` showed an RP-LC retention time of 952 s.

The molecule `O=C(Nc1ccc(Cl)cc1)N1CCN(c2nc3ccccc3nc2C(F)(F)F)CC1` returned an RP-LC retention time of 1150 s.

In turn, `O=C(Cn1cccn1)Nc1nc(-c2cccnc2)cs1` yielded an RP-LC retention time of 537 s.

For `Nc1c(C(=O)NCc2ccccc2Cl)nsc1C(=O)N1CCN(c2ccccn2)CC1`, the RP-LC retention time was 715 s.

Molecule `CC(C)c1c(C2CCN(C(=O)c3cc(F)ccc3F)CC2)noc1N` yielded an RP-LC retention time of 774 s.

On to `O=S(=O)(Cc1ccccc1)N1CCCCC1c1nc(C2CC2)n[nH]1` (stereo not drawn), for which the RP-LC retention time turned out to be 758 s.

`COc1ccc(N2CC(c3noc(-c4cccc(F)c4)n3)CC2=O)cc1OC` (stereo not drawn) registered an RP-LC retention time of 847 s.

In turn, `c1cc(-c2nc(-c3ccnc(N4CCCC4)c3)no2)ccn1` showed an RP-LC retention time of 594 s.

Molecule `COCCNC(=O)c1csc(N2CCN(c3ccc(Cl)cc3)CC2)n1` showed an RP-LC retention time of 972 s.

`CCC(=O)NC1CCc2cccc(OC)c2C1` (stereo not drawn) came in with an RP-LC retention time of 821 s.

In the case of `O=C(NC1CC1)c1ccc(OCC2CCCN(C(=O)c3ccoc3)C2)cc1` (stereo not drawn), the RP-LC retention time worked out at 712 s.

Molecule `COc1ccccc1CNC(=O)Cn1ccc2ccc(-c3nnc(C)o3)cc21` yielded an RP-LC retention time of 763 s.

Molecule `COc1ccc(Cl)cc1NC(=O)N1CCC(C(=O)Nc2nccs2)CC1` yielded an RP-LC retention time of 764 s.

As to `Cn1nc(CNC(=O)c2ccc(Br)o2)c2ccccc21`, the RP-LC retention time was found to be 795 s.

As to `CCNC(=O)C1CCCN(c2nc3ncn(CC(=O)Nc4ccc(Cl)cc4)c(=O)c3s2)C1` (stereo not drawn), the RP-LC retention time was determined as 704 s.

As to `CN(C)S(=O)(=O)c1ccc(Cl)c(-c2nnc(-c3ccccc3)o2)c1`, the RP-LC retention time amounted to 983 s.

Regarding `CCCN1CCN(CCCNC(=O)c2sc3ncccc3c2-n2cccc2)CC1`, the RP-LC retention time is 574 s.

`O=C1c2cccc3cccc(c23)C(=O)N1CCCC(=O)N1CCc2ccccc21` registered an RP-LC retention time of 908 s.

Regarding `Cc1cc2nn(CC(=O)Nc3ccc(Cl)cc3)c(=O)n2c(Nc2ccccc2)n1`, the RP-LC retention time is 1050 s.

In turn, `O=C(O)c1ccc2c(c1Nc1ccccc1)C(=O)c1ccccc1C2=O` came in with an RP-LC retention time of 1020 s.

Regarding `CN(CCNC(=O)c1cc(=O)n(C)c2c1c(=O)n(C)c(=O)n2C)C1CCCCC1`, the RP-LC retention time was 624 s.

Consider `CC1(C)Cc2cccc(OCc3ccc(C(=O)NCCN4CCOCC4)cc3)c2O1`, for which the RP-LC retention time is 586 s.

As for `O=C(NCCc1cccs1)c1cc[nH]c1C1CCCNC1` (stereo not drawn), the RP-LC retention time was 614 s.

Take `CCOc1ccc(CCNC(=O)C2CCCN(c3nnc(C)c4c(C)n(-c5ccccc5)nc34)C2)cc1` (stereo not drawn): the RP-LC retention time was found to be 759 s.

Molecule `CN(c1nccn2c(=O)n(CC(=O)Nc3ccc(F)cc3)nc12)C1CCCCC1` registered an RP-LC retention time of 749 s.

Turning to `O=C(Cc1csc2nc(-c3ccccc3)cn12)Nc1ccc(F)cc1F`, the RP-LC retention time worked out at 809 s.

Turning to `CCOc1ccc(-c2nn3c(CSc4ccccc4)nnc3s2)cc1OC`, the RP-LC retention time came out at 987 s.

In turn, `COc1ccc2oc(-c3ccccc3)c(C(=O)Nc3nccs3)c2c1` had an RP-LC retention time of 931 s.

The molecule `Cc1ccc(C)c(S(=O)(=O)N2CCC(N3CCN(Cc4ccccc4)C(=O)C3=O)CC2)c1` came in with an RP-LC retention time of 861 s.

Molecule `Cc1cc2n(n1)CCCN2C(=O)CCC(=O)N1CCN(c2cc(Cl)ccc2C)CC1` came in with an RP-LC retention time of 852 s.

The molecule `O=C(c1cc(-c2ccncc2)n[nH]1)N1CCCC(C(=O)N2CCN(c3ccc(Cl)cc3)CC2)C1` (stereo not drawn) returned an RP-LC retention time of 661 s.

In turn, `CCn1ccc2cc(S(=O)(=O)N3CCC(C(=O)N4CCN(c5ncccn5)CC4)CC3)ccc21` had an RP-LC retention time of 880 s.

As to `CCc1ccc(S(=O)(=O)Nc2cccc(-c3nc4cccnc4s3)c2C)s1`, the RP-LC retention time turned out to be 942 s.

Consider `CC(=O)N1c2ccc(S(=O)(=O)N3CCCCC3)cc2CC1C(=O)NCCN1CCCCCC1` (stereo not drawn), for which the RP-LC retention time is 639 s.

Take `COC(=O)c1cccc(Nc2c(-c3ccc([N+](=O)[O-])cc3)nc3cnccn23)c1`: the RP-LC retention time was 839 s.

As for `COc1ccc(-c2nnc(-c3cc(S(N)(=O)=O)ccc3Cl)o2)cc1`, the RP-LC retention time is 792 s.

For the molecule `C[C@@]12N[C@@H](Cc3ccccc31)c1ccccc12`, the RP-LC retention time amounted to 655 s.

`COCC(=O)Nc1nc(-c2ccc3c(c2)NC(=O)C(C)O3)cs1` (stereo not drawn) had an RP-LC retention time of 691 s.

`Cc1ccc(-c2nc(Cn3cccc3C(=O)NC3CCCC3)no2)cc1` gave an RP-LC retention time of 1050 s.

As for `CCCCN(C)C(=O)c1cnc(-c2ccc(C)cc2)nc1-c1ccncc1`, the RP-LC retention time is 968 s.

In the case of `CC(C)Oc1ccc(-c2nc3ncccn3c2NC2CCCCC2)cc1`, the RP-LC retention time stood at 870 s.

In turn, `CN(CCc1ccncc1)C(=O)C1CCN(c2cnn(Cc3ccccc3)c(=O)c2)CC1` gave an RP-LC retention time of 612 s.

In turn, `Cc1ccc(Cn2c(=O)n(CCNC(=O)C3CC3)c3ncccc32)cc1` returned an RP-LC retention time of 740 s.

As for `CC(=O)c1ccc(N2CCN(C(=O)c3csc(-c4ccc(C)n4C)n3)CC2)cc1`, the RP-LC retention time stood at 955 s.

`COc1ccc(-c2cc(N3CCC(NC(=O)c4ccc(Cl)cc4)C3)n[nH]2)cc1` (stereo not drawn) displayed an RP-LC retention time of 739 s.

`CCCC(=O)Nc1ccc2c(c1)CN(C(=O)Cc1ccc(C)cc1)C(C(=O)N(C)C)C2` (stereo not drawn) registered an RP-LC retention time of 748 s.

With `Cc1c(Cl)cccc1NC(=O)N1CCCC(Cn2cnc3cccnc32)C1` (stereo not drawn), the RP-LC retention time was determined as 747 s.

`O=C(COc1ccc(F)c(F)c1)N1CCN(c2ncccc2-c2nnc(C3CC3)o2)CC1` displayed an RP-LC retention time of 822 s.

`Cc1cnc(C2CC2)n1C1CCCN(S(=O)(=O)c2ccccc2)C1` (stereo not drawn) gave an RP-LC retention time of 654 s.

As to `CCn1ccc(C(=O)N2CCCn3nc(-c4ccc(OC)cc4)cc3C2)n1`, the RP-LC retention time worked out at 756 s.

`Cn1ncc(N2CCCC(CC(=O)NCc3cccs3)C2)cc1=O` (stereo not drawn) showed an RP-LC retention time of 676 s.

In turn, `CCc1ccc(NC(=O)CSc2nnc3c4cc(-c5ccc(OC)cc5)nn4ccn23)cc1` showed an RP-LC retention time of 946 s.

For the molecule `COc1ccc(CCNC(=O)[C@@H]2[C@H](c3cc(OC)c(OC)c(OC)c3)c3cc4c(cc3[C@H](O)[C@H]2CO)OCO4)cc1OC`, the RP-LC retention time amounted to 699 s.

Molecule `Cn1c(=O)c(N2CCN(C(=O)c3cc(F)ccc3Cl)CC2)nc2ccncc21` had an RP-LC retention time of 570 s.

The molecule `N#Cc1ccc(S(=O)(=O)N2CC(c3nc(CCOCc4ccccc4)no3)C2)cc1` gave an RP-LC retention time of 980 s.

The molecule `CCOc1ccc(NC(=O)c2oc3ccc(C)cc3c2C)c2cccnc12` came in with an RP-LC retention time of 766 s.

Molecule `Clc1cccc(-c2noc(Cn3ccnc3)n2)c1` gave an RP-LC retention time of 636 s.

Molecule `Cc1oc(C2CCN(C(=O)Nc3ccc4c(c3)CCC4)CC2)nc1C(=O)N1CCCC1` registered an RP-LC retention time of 861 s.

The molecule `O=C(CSc1nnc2c3sc(N4CCCC4)nc3ncn12)NC1CCCCC1` displayed an RP-LC retention time of 767 s.

Turning to `O=C(NC1CCCCC1)C1CCN(c2cnc(N3CCCC3)nc2)CC1`, the RP-LC retention time was 649 s.

Take `Cc1ccc2c(Nc3cc(F)ccc3C)c(-c3nc(C)no3)cnc2n1`: the RP-LC retention time came to 784 s.

Regarding `CCCNc1cc(N2CCCC(CCC(=O)N3CCN(C(=O)c4ccco4)CC3)C2)ncn1` (stereo not drawn), the RP-LC retention time was found to be 628 s.

As for `COc1ccc(NC(=O)C2CCCN(c3cc(=O)n(C)c(=O)n3C)C2)cc1OC` (stereo not drawn), the RP-LC retention time was determined as 637 s.

The molecule `Cc1noc(-c2ccc(NC(=O)c3cn(C)nn3)cc2)n1` showed an RP-LC retention time of 658 s.

Consider `COc1ccc(C)cc1S(=O)(=O)N1CCN(Cc2ccc3c(c2)OCO3)CC1`, for which the RP-LC retention time turned out to be 609 s.

The molecule `CCc1noc(NC(C)=O)c1-c1ccc(C)c(S(=O)(=O)Nc2ccc(C)cc2C)c1` returned an RP-LC retention time of 897 s.

With `CC(=O)N1CCc2cc(N3CC(C(=O)NCc4ccccc4F)CC3=O)ccc21` (stereo not drawn), the RP-LC retention time turned out to be 763 s.

As for `O=C(Cn1nc2c3sc(N4CCCCC4)nc3ncn2c1=O)Nc1ccc(F)c(F)c1`, the RP-LC retention time stood at 851 s.

`Cc1cc(C)cc(Nc2c(C(=O)N3CCOCC3)cnc3nc(C)ccc23)c1` registered an RP-LC retention time of 604 s.

With `COc1ccc(N2C=C(C(=O)N3CCCC3)S(=O)(=O)c3ccc(F)cc32)cc1OC`, the RP-LC retention time is 758 s.

On to `CCCC(=O)c1cn(CC(=O)NCc2ccc3c(c2)OCCCO3)c2ccccc12`, for which the RP-LC retention time came out at 876 s.

On to `Cc1cc(C)cc(-c2nc(-c3ccc4c(c3)oc(=O)n4C(C)C)no2)c1`, for which the RP-LC retention time is 1140 s.

As for `O=C1NC(c2cccc3ccccc23)Nc2ccccc21` (stereo not drawn), the RP-LC retention time amounted to 776 s.

(Values after the METLIN SMRT retention time set (Domingo-Almenara et al. 2019).)
